Test results published in US20120121591A1 (priority 2009, published 2012).
Read-outs that look alike come from different tables or passages of the source. Positions of bridges follow the written chain, without caps; N, C: chain ends. Residues, ends and D or L forms follow the SMILES beside them.

Legend:
Assay type in all cases: cell-based
hKv1.3 = hKv1.3 (Homo sapiens, UniProt P22001); test: cell-based; details: Kv1.3 (IWQ) IC50 (nM, Avg)
[1] = tested on: IFN-g secretion from T cells in human whole blood
[2] = tested on: IL-2 secretion from T cells in human whole blood; details: read-out: WB (IL-2) IC50 (nM, Avg)
[3] = read-out: WB (IFNg) IC50 (nM, Avg)
[4] = read-out: WB (IFNg) IC5- (nM, Avg)

hKv1.3, sequence (P22001 whole entry): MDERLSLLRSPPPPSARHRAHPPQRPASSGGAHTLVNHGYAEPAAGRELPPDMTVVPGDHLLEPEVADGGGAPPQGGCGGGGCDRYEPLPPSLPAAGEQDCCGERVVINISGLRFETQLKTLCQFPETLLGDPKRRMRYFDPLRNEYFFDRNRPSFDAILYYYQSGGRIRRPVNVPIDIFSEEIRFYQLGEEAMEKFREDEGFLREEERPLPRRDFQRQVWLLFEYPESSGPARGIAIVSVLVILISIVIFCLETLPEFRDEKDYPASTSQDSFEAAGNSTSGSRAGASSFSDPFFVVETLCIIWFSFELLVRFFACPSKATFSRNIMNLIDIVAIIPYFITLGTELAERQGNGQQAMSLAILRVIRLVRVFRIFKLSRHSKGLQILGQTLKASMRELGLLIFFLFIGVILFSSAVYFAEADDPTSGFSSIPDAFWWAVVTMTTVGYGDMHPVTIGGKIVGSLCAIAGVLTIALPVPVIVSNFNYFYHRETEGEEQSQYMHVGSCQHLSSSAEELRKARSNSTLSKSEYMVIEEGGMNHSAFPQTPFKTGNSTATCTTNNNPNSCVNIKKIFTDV

Work on `CC[C@H](C)[C@@H]1NC(=O)[C@@H](NC(=O)[C@H](CO)NC(=O)[C@@H](N)CCCNC(=N)N)CSSC[C@@H](C(=O)O)NC(=O)[C@H]([C@@H](C)O)NC(=O)[C@H](CCCNC(=N)N)NC(=O)[C@@H]2CSSC[C@@H]3NC(=O)[C@H](CCC(N)=O)NC(=O)[C@H](Cc4ccccc4)NC(=O)[C@H](C)NC(=O)[C@H]([C@@H](C)O)NC(=O)[C@H](CSSC[C@H](NC(=O)[C@H](Cc4ccccc4)NC(=O)[C@H](CO)NC(=O)[C@H](CC(C)C)NC(=O)[C@H](CCCNC(=N)N)NC(=O)[C@H](Cc4ccc(O)cc4)NC(=O)[C@H](CCCCN)NC(=O)[C@H](CCSC)NC(=O)[C@H](CO)NC(=O)[C@H](Cc4c[nH]cn4)NC(=O)[C@H](CCCCN)NC3=O)C(=O)N[C@@H](CCCNC(=N)N)C(=O)N[C@@H](CCCCN)C(=O)N[C@@H]([C@@H](C)O)C(=O)N2)NC(=O)[C@H](CCCNC(=N)N)NC(=O)[C@H](CO)NC(=O)[C@H](CCCCN)NC(=O)[C@@H]2CCCN2C(=O)[C@H]([C@@H](C)CC)NC(=O)[C@H]([C@@H](C)O)NC(=O)[C@H](CC(=O)O)NC1=O` [[Arg33]ShK] yielded an IC50 (hKv1.3) of 0.102 nM, an IC50 [1, 3] of 0.232 nM and an IC50 [2] of 0.068 nM.
Compound `CCCC[C@@H]1NC(=O)[C@H](CO)NC(=O)[C@H](Cc2c[nH]cn2)NC(=O)[C@H](CCCCN)NC(=O)[C@@H]2CSSC[C@@H]3NC(=O)[C@H]([C@@H](C)O)NC(=O)[C@H](CCCCN)NC(=O)[C@H](CCCNC(=N)N)NC(=O)[C@H](CSSC[C@H](NC(=O)[C@H](CCCNC(=N)N)NC(=O)[C@H](CO)NC(=O)[C@H](CCCCN)NC(=O)[C@@H]4CCCN4C(=O)[C@H]([C@@H](C)CC)NC(=O)[C@H]([C@@H](C)O)NC(=O)[C@H](CC(=O)O)NC(=O)[C@H]([C@@H](C)CC)NC(=O)[C@@H](NC(=O)[C@H](CO)NC(=O)[C@@H](N)CCCNC(=N)N)CSSC[C@@H](C(N)=O)NC(=O)[C@H]([C@@H](C)O)NC(=O)CNC3=O)C(=O)N[C@@H]([C@@H](C)O)C(=O)N[C@@H](C)C(=O)N[C@@H](Cc3ccccc3)C(=O)N[C@@H](CC(N)=O)C(=O)N2)NC(=O)[C@H](Cc2ccccc2)NC(=O)[C@H](CO)NC(=O)[C@H](CC(C)C)NC(=O)[C@H](CCCNC(=N)N)NC(=O)[C@H](Cc2ccc(O)cc2)NC(=O)[C@H](CCCCN)NC1=O` [[Asn16,Nle21]ShK-amide] has an IC50 (hKv1.3) of 0.171 nM, an IC50 [1, 3] of 1.07 nM and an IC50 [2] of 0.689 nM.
In the case of `CC[C@H](C)[C@@H]1NC(=O)[C@@H](NC(=O)[C@H](CO)NC(=O)[C@@H](N)CCCNC(=N)N)CSSC[C@@H](C(=O)O)NC(=O)[C@H]([C@@H](C)O)NC(=O)CNC(=O)[C@@H]2CSSC[C@@H]3NC(=O)[C@H](CCN)NC(=O)[C@H](Cc4ccccc4)NC(=O)[C@H](C)NC(=O)[C@H]([C@@H](C)O)NC(=O)[C@H](CSSC[C@H](NC(=O)[C@H](Cc4ccccc4)NC(=O)[C@H](CO)NC(=O)[C@H](CC(C)C)NC(=O)[C@H](CCCNC(=N)N)NC(=O)[C@H](Cc4ccc(O)cc4)NC(=O)[C@H](CCCCN)NC(=O)[C@H](CCSC)NC(=O)[C@H](CO)NC(=O)[C@H](Cc4c[nH]cn4)NC(=O)[C@H](CCCCN)NC3=O)C(=O)N[C@@H](CCCNC(=N)N)C(=O)N[C@@H](CCCCN)C(=O)N[C@@H]([C@@H](C)O)C(=O)N2)NC(=O)[C@H](CCCNC(=N)N)NC(=O)[C@H](CO)NC(=O)[C@H](CCCCN)NC(=O)[C@@H]2CCCN2C(=O)[C@H]([C@@H](C)CC)NC(=O)[C@H]([C@@H](C)O)NC(=O)[C@H](CC(=O)O)NC1=O` [[Dab16]ShK], the IC50 (hKv1.3) is reported as 0.082 nM, the IC50 [1, 3] is reported as 0.223 nM and the IC50 [2] is reported as 0.086 nM.
`CC[C@H](C)[C@@H]1NC(=O)[C@@H](NC(=O)[C@H](CO)NC(=O)[C@@H](N)CCC(=O)O)CSSC[C@@H](C(=O)O)NC(=O)[C@H]([C@@H](C)O)NC(=O)CNC(=O)[C@@H]2CSSC[C@@H]3NC(=O)[C@H](CCC(N)=O)NC(=O)[C@H](Cc4ccccc4)NC(=O)[C@H](C)NC(=O)[C@H]([C@@H](C)O)NC(=O)[C@H](CSSC[C@H](NC(=O)[C@H](Cc4ccccc4)NC(=O)[C@H](CO)NC(=O)[C@H](CC(C)C)NC(=O)[C@H](CCCNC(=N)N)NC(=O)[C@H](Cc4ccc(O)cc4)NC(=O)[C@H](CCCCN)NC(=O)[C@H](CCSC)NC(=O)[C@H](CO)NC(=O)[C@H](Cc4c[nH]cn4)NC(=O)[C@H](CCCCN)NC3=O)C(=O)N[C@@H](CCCNC(=N)N)C(=O)N[C@@H](CCCCN)C(=O)N[C@@H]([C@@H](C)O)C(=O)N2)NC(=O)[C@H](CCCNC(=N)N)NC(=O)[C@H](CO)NC(=O)[C@H](CCCCN)NC(=O)[C@@H]2CCCN2C(=O)[C@H]([C@@H](C)CC)NC(=O)[C@H]([C@@H](C)O)NC(=O)[C@H](CC(=O)O)NC1=O` [[Glu1]ShK] was tested, and the IC50 (hKv1.3) was 0.144 nM, the IC50 [1, 4] was 0.249 nM and the IC50 [2] was 0.213 nM.
Work on `CC[C@H](C)[C@@H]1NC(=O)[C@@H](NC(=O)[C@H](CCC(=O)O)NC(=O)[C@@H](N)CCCNC(=N)N)CSSC[C@@H](C(=O)O)NC(=O)[C@H]([C@@H](C)O)NC(=O)CNC(=O)[C@@H]2CSSC[C@@H]3NC(=O)[C@H](CCC(N)=O)NC(=O)[C@H](Cc4ccccc4)NC(=O)[C@H](C)NC(=O)[C@H]([C@@H](C)O)NC(=O)[C@H](CSSC[C@H](NC(=O)[C@H](Cc4ccccc4)NC(=O)[C@H](CO)NC(=O)[C@H](CC(C)C)NC(=O)[C@H](CCCNC(=N)N)NC(=O)[C@H](Cc4ccc(O)cc4)NC(=O)[C@H](CCCCN)NC(=O)[C@H](CCSC)NC(=O)[C@H](CO)NC(=O)[C@H](Cc4c[nH]cn4)NC(=O)[C@H](CCCCN)NC3=O)C(=O)N[C@@H](CCCNC(=N)N)C(=O)N[C@@H](CCCCN)C(=O)N[C@@H]([C@@H](C)O)C(=O)N2)NC(=O)[C@H](CCCNC(=N)N)NC(=O)[C@H](CO)NC(=O)[C@H](CCCCN)NC(=O)[C@@H]2CCCN2C(=O)[C@H]([C@@H](C)CC)NC(=O)[C@H]([C@@H](C)O)NC(=O)[C@H](CC(=O)O)NC1=O` [[Glu2]ShK] yielded an IC50 (hKv1.3) of 0.111 nM, an IC50 [1, 4] of 0.039 nM and an IC50 [2] of 0.029 nM.
In the case of `CC[C@H](C)[C@@H]1NC(=O)[C@H]([C@@H](C)O)NC(=O)[C@H](CC(=O)O)NC(=O)[C@H](CCC(=O)O)NC(=O)[C@@H](NC(=O)[C@H](CO)NC(=O)[C@@H](N)CCCNC(=N)N)CSSC[C@@H](C(N)=O)NC(=O)[C@H]([C@@H](C)O)NC(=O)CNC(=O)[C@@H]2CSSC[C@@H]3NC(=O)[C@H](CCCCN)NC(=O)[C@H](Cc4ccccc4)NC(=O)[C@H](C)NC(=O)[C@H]([C@@H](C)O)NC(=O)[C@H](CSSC[C@H](NC(=O)[C@H](Cc4ccccc4)NC(=O)[C@H](CO)NC(=O)[C@H](CC(C)C)NC(=O)[C@H](CCCNC(=N)N)NC(=O)[C@H](Cc4ccc(O)cc4)NC(=O)[C@H](CCCCN)NC(=O)[C@H](CCSC)NC(=O)[C@H](CO)NC(=O)[C@H](Cc4c[nH]cn4)NC(=O)[C@H](CCCNC(=N)N)NC3=O)C(=O)N[C@@H](CCCCN)C(=O)N[C@@H](CCCNC(=N)N)C(=O)N[C@@H]([C@@H](C)O)C(=O)N2)NC(=O)[C@H](CCCNC(=N)N)NC(=O)[C@H](CCC(=O)O)NC(=O)[C@H](CCC(=O)O)NC(=O)[C@@H]2CCCN2C1=O` [[Glu4,9,10; Lys16,29;Arg18, 30]ShK-amide] (H-RSCEDTIPEERCTAFKCRHSMKYRLSFCKRTCGTC-NH2; disulfide 3-35, 12-28, 17-32), the IC50 (hKv1.3) is reported as 0.059 nM, the IC50 [1, 3] is reported as 0.513 nM and the IC50 [2] is reported as 0.204 nM.
In the case of `CC[C@H](C)[C@@H]1NC(=O)[C@H]([C@@H](C)O)NC(=O)[C@H](CC(=O)O)NC(=O)[C@H](CCC(=O)O)NC(=O)[C@@H](NC(=O)[C@H](CO)NC(=O)[C@@H](N)CCCNC(=N)N)CSSC[C@@H](C(N)=O)NC(=O)[C@H]([C@@H](C)O)NC(=O)CNC(=O)[C@@H]2CSSC[C@@H]3NC(=O)[C@H](CCCCN)NC(=O)[C@H](Cc4ccccc4)NC(=O)[C@H](C)NC(=O)[C@H]([C@@H](C)O)NC(=O)[C@H](CSSC[C@H](NC(=O)[C@H](Cc4ccccc4)NC(=O)[C@H](CO)NC(=O)[C@H](CC(C)C)NC(=O)[C@H](CCCNC(=N)N)NC(=O)[C@H](Cc4ccc(O)cc4)NC(=O)[C@H](CCCCN)NC(=O)[C@H](CCSC)NC(=O)[C@H](CO)NC(=O)[C@H](Cc4c[nH]cn4)NC(=O)[C@H](CCCNC(=N)N)NC3=O)C(=O)N[C@@H](CCCCN)C(=O)N[C@@H](CCCNC(=N)N)C(=O)N[C@@H]([C@@H](C)O)C(=O)N2)NC(=O)[C@H](CCCNC(=N)N)NC(=O)[C@H](CO)NC(=O)[C@H](CCC(=O)O)NC(=O)[C@@H]2CCCN2C1=O` [[Glu4,9;Lys16,29;Arg18,30]ShK-amide] (H-RSCEDTIPESRCTAFKCRHSMKYRLSFCKRTCGTC-NH2; disulfide 3-35, 12-28, 17-32), the IC50 (hKv1.3) is reported as 0.062 nM, the IC50 [1, 3] is reported as 0.345 nM and the IC50 [2] is reported as 0.151 nM.
For `CC[C@H](C)[C@@H]1NC(=O)[C@H]([C@@H](C)O)NC(=O)[C@H](CC(=O)O)NC(=O)[C@H](CCC(=O)O)NC(=O)[C@@H](NC(=O)[C@H](CO)NC(=O)[C@@H](N)CCCNC(=N)N)CSSC[C@@H](C(N)=O)NC(=O)[C@H]([C@@H](C)O)NC(=O)CNC(=O)[C@@H]2CSSC[C@@H]3NC(=O)[C@H](CCCCN)NC(=O)[C@H](Cc4ccccc4)NC(=O)[C@H](C)NC(=O)[C@H]([C@@H](C)O)NC(=O)[C@H](CSSC[C@H](NC(=O)[C@H](Cc4ccccc4)NC(=O)[C@H](CO)NC(=O)[C@H](CC(C)C)NC(=O)[C@H](CCCNC(=N)N)NC(=O)[C@H](Cc4ccc(O)cc4)NC(=O)[C@H](CCCCN)NC(=O)[C@H](CCSC)NC(=O)[C@H](CO)NC(=O)[C@H](Cc4c[nH]cn4)NC(=O)[C@H](CCCNC(=N)N)NC3=O)C(=O)N[C@@H](CCCCN)C(=O)N[C@@H](CCCNC(=N)N)C(=O)N[C@@H]([C@@H](C)O)C(=O)N2)NC(=O)[C@H](CCCNC(=N)N)NC(=O)[C@H](CCC(=O)O)NC(=O)[C@H](CCCCN)NC(=O)[C@@H]2CCCN2C1=O` [[Glu4,10; Lys16,29;Arg18,30]ShK-amide] (H-RSCEDTIPKERCTAFKCRHSMKYRLSFCKRTCGTC-NH2; disulfide 3-35, 12-28, 17-32), the IC50 (hKv1.3) was 0.064 nM, the IC50 [1, 3] was 0.217 nM and the IC50 [2] was 0.114 nM.
